Where two headings read alike, the source gives them in different places.
Assays:
[1] = in vitro; type: in vitro ADME, canine; conditions: dog; for Papp A→B at 1 h, 10 µM / Papp B→A at 1 h, 10 µM / recovery at 1 h, 10 µM: MDCK
Protocol: (§1) internal standard at each timepoint. […]
(§2) including an analytical internal standard.
(§3) Apparent permeability (Papp) values were determined from the relationship: […]
(§4) Where V is the volume of each Transwell compartment (apical 125 µL, basolateral 600 µL), and concentrations are the relative MS responses for compound (normalized to internal standard) in the donor chamber before incubation and acceptor chamber at the end of the incubation. Area = area of cells exposed for drug transfer (0.33 cm 2).
(§5) Efflux ratios (Papp B>A / Papp A>B) were calculated for each compound from the […]
(§6) MDR1-MDCK cell line has been engineered to overexpress the efflux transporter, MDR1 (P-glycoprotein), and a finding of good permeability B>A, but poor […]
(§7) order to confirm the involvement of MDR1 in any efflux seen, an “ef fective efflux ratio” (EER) was calculated by comparing compound efflux ratios (ER) in the two cell types, i.e. EER = ER (MDR1-MDCK)/ ER (wild-type MDCK). This ratio illustrates the effect of the over-expressed MDR1 normalised for the background movement of compound through the wild-type cells.
(§8) Lucifer Yellow (LY) was added to the apical buffer in all wells to assess viability of the cell layer. As LY cannot freely permeate lipophilic barriers, a high degree of LY […]
(§9) validity of other wells on the plate.
(§10) Compound recovery from the wells was determined from MS responses (normalized to internal standard) in donor and acceptor chambers at the end of incubation compared to response in the donor chamber pre-incubation.

[2] = test system: MDR1 (P-glycoprotein); assay: in vitro; type: in vitro ADME, canine; conditions: dog
Protocol: as §1, §2, §3, §4, §5, §6, §7, §8, §9, §10

[3] = pH 7.4, Papp A>B n=1, wild type MDCK
[4] = pH 7.4, Papp A>B n=2, wild type MDCK
[5] = pH 7.4, Papp B>A n=1, wild type MDCK
[6] = pH 7.4, Papp B>A n=2, wild type MDCK
[7] = pH 7.4, wild type MDCK, read-out: Papp A>B Mean
[8] = pH 7.4, wild type MDCK, read-out: Papp B>A Mean
[9] = pH 7.4, wild type MDCK, read-out: Recovery A>B Mean
[10] = pH 7.4, wild type MDCK, read-out: Recovery A>B n=1
[11] = pH 7.4, wild type MDCK, read-out: Recovery A>B n=2
[12] = pH 7.4, wild type MDCK, read-out: Recovery B>A Mean
[13] = pH 7.4, wild type MDCK, read-out: Recovery B>A n=1
[14] = pH 7.4, wild type MDCK, read-out: Recovery B>A n=2
[15] = MDCK-MDR1, pH 7.4, MDR1 MDCK, read-out: Papp A>B Mean
[16] = MDCK-MDR1, pH 7.4, MDR1 MDCK, read-out: Papp B>A Mean
[17] = MDCK-MDR1, pH 7.4, MDR1 MDCK, read-out: Recovery A>B Mean
[18] = MDCK-MDR1, pH 7.4, MDR1 MDCK, read-out: Recovery A>B n=1
[19] = MDCK-MDR1, pH 7.4, MDR1 MDCK, read-out: Recovery A>B n=2
[20] = MDCK-MDR1, pH 7.4, MDR1 MDCK, read-out: Recovery B>A Mean
[21] = MDCK-MDR1, pH 7.4, MDR1 MDCK, read-out: Recovery B>A n=1
[22] = MDCK-MDR1, pH 7.4, MDR1 MDCK, read-out: Recovery B>A n=2
[23] = MDCK-MDR1, pH 7.4, Papp A>B n=1, MDR1 MDCK
[24] = MDCK-MDR1, pH 7.4, Papp A>B n=2, MDR1 MDCK
[25] = MDCK-MDR1, pH 7.4, Papp B>A n=1, MDR1 MDCK
[26] = MDCK-MDR1, pH 7.4, Papp B>A n=2, MDR1 MDCK

Row | SMILES | Papp A→B at 1 h, 10 µM [1, 3] [×10⁻⁶ cm/s] | Papp A→B at 1 h, 10 µM [1, 4] [×10⁻⁶ cm/s] | Papp B→A at 1 h, 10 µM [1, 5] [×10⁻⁶ cm/s] | Papp B→A at 1 h, 10 µM [1, 6] [×10⁻⁶ cm/s] | Papp A→B at 1 h, 10 µM [1, 7] [×10⁻⁶ cm/s] | Papp B→A at 1 h, 10 µM [1, 8] [×10⁻⁶ cm/s] | recovery at 1 h, 10 µM [1, 9] [%] | recovery at 1 h, 10 µM [1, 10] [%] | recovery at 1 h, 10 µM [1, 11] [%] | recovery at 1 h, 10 µM [1, 12] [%] | recovery at 1 h, 10 µM [1, 13] [%] | recovery at 1 h, 10 µM [1, 14] [%] | Papp A→B at 1 h, 10 µM [2, 15] [×10⁻⁶ cm/s] | Papp B→A at 1 h, 10 µM [2, 16] [×10⁻⁶ cm/s] | recovery at 1 h, 10 µM [2, 17] [%] | recovery at 1 h, 10 µM [2, 18] [%] | recovery at 1 h, 10 µM [2, 19] [%] | recovery at 1 h, 10 µM [2, 20] [%] | recovery at 1 h, 10 µM [2, 21] [%] | recovery at 1 h, 10 µM [2, 22] [%] | further results
1 | CC[C@]1(O)C[C@@H]2CN(CCc3c([nH]c4ccccc34)[C@@](C(=O)OC)(c3cc4c(cc3OC)N(C)[C@H]3[C@@](O)(C(=O)OC)[C@H](OC(C)=O)[C@]5(CC)C=CCN6CC[C@]43[C@@H]65)C2)C1 [Vinblastine, reference compound] | < 1 | < 1 | 3.6 | 3.9 | < 1 | 3.75 | 46.5 | 48 | 45 | 72.5 | 71 | 74 | < 1 | 22 | 55 | 55 | 55 | 67.5 | 71 | 64 | Papp A→B at 1 h, 10 µM [2, 23]: < 1 ×10⁻⁶ cm/s; Papp A→B at 1 h, 10 µM [2, 24]: < 1 ×10⁻⁶ cm/s; Papp B→A at 1 h, 10 µM [2, 25]: 24 ×10⁻⁶ cm/s; Papp B→A at 1 h, 10 µM [2, 26]: 20 ×10⁻⁶ cm/s
2 | CC(C)NCC(O)COc1cccc2ccccc12 (centres unmarked) [Propranolol, reference compound] | 52 | 57 | 30 | 31 | 54.5 | 30.5 | 91 | 88 | 94 | 80.5 | 77 | 84 | 52.5 | 38 | 92.5 | 97 | 88 | 80.5 | 83 | 78 | efflux ratio at 1 h, 10 µM ([1]; pH 7.4, wild type MDCK, Papp B>A / Papp A>B): 0.56; Papp A→B at 1 h, 10 µM [2, 23]: 53 ×10⁻⁶ cm/s; Papp A→B at 1 h, 10 µM [2, 24]: 52 ×10⁻⁶ cm/s; Papp B→A at 1 h, 10 µM [2, 25]: 39 ×10⁻⁶ cm/s; Papp B→A at 1 h, 10 µM [2, 26]: 37 ×10⁻⁶ cm/s; efflux ratio at 1 h, 10 µM ([2]; pH 7.4, MDR1 MDCK, Papp B>A / Papp A>B): 0.72

From PMC6656724 (Communications Biology, 2019)
